In PubChem BioAssay (NCI) one finds TGI and GI50 data, which are given here for 14 compounds.

What all share (experiment): NCI tumour cell line growth inhibition, 48 h
Assay [1] concerns MOLT-4 leukemia.
In assay [2] the test system is HCT-116 colon.
Assay [3] concerns UACC-257 melanoma.
The subject of assay [4] is SK-MEL-5 melanoma.
The test system of assay [5] is NCI-H23 lung.
The subject of assay [6] is U251 CNS.
The subject of assay [7] is NCI-H460 lung.
For assay [8], the system named is CAKI-1 renal.
For assay [9], the system named is SK-OV-3 ovarian.

SMILES strings stand for the structures. Where “and” joins values, the source holds several entries; their conditions need not be identical. Equal values may be shown once.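 Cells were grown in 96-well plates and exposed to each compound for 48 hours at five concentrations; endpoints were interpolated linearly between bracketing concentrations, or set to the highest concentration if not reached. At the GI50, growth is halved. TGI is the concentration that stops growth completely.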

For `CN=S(=O)(C[C@]1(O)CC2OC1C1OC(C)(C)OC21)c1ccccc1` (stereo partly drawn), the TGI in assay [1], in assay [2], in assay [3], in assay [4], in assay [5] and in assay [6] was above 100 µM in each case. Moreover, the TGI in assay [7], in [8] and in assay [9] was above 100 µM in each case.
Take `CCC[CH2][Sn]([CH2]CCC)([S]C1=NCCS1)[S]C1=NCCS1`: the GI50 in [1] is 0.157 µM; in [2], 0.615 µM; in [3], 0.323 µM; in assay [4], 0.452 µM; in assay [5], 0.17 µM; in [6], 0.567 µM. Moreover, the GI50 was 1.52 µM in assay [7], 0.0928 µM in assay [8] and 1.9 µM in assay [9]. The TGI was 0.732 µM in assay [1]; 1.91 µM in [2]; 1.44 µM in [3]; 1.76 µM in assay [4]; 0.67 µM in assay [5]; 1.86 µM in [6]. The TGI in [7] is 3.26 µM; in [8], 0.51 µM; in [9] it was 3.31 µM.
Consider `CCC(=C(c1ccc(OCc2ccccc2)cc1)c1ccc(OCc2ccccc2)cc1)c1ccc(OC)cc1`, for which the TGI in assay [1], in assay [2], in assay [4], in assay [5], in assay [6] and in [7] was above 100 µM throughout. In addition, the TGI in assay [8] and in [9] was above 100 µM throughout.
In the case of `C=CCN(N=O)C(=O)N(CCC)CCCCC(NC(C)=O)C(=O)NCc1ccccc1` (stereo not drawn), the TGI in assay [1], in assay [3], in assay [4], in [5], in assay [6] and in assay [7] was above 100 µM throughout. Also, the TGI in assay [8] and in [9] was above 100 µM in each case.
On to `O=C(CC1(O)C(=O)Nc2c(Cl)cc(Cl)cc21)c1ccc2ccccc2c1` (stereo not drawn), for which the TGI came out at 27.8 µM in assay [1]; 13.4 µM in assay [2]; 27.1 µM in assay [3]; 18.8 µM in assay [4]; 22.3 µM in assay [5]; 18.7 µM in assay [6]. In addition, the TGI is 18.1 µM in [7], 19.8 µM in [8] and 24.6 µM in assay [9].
With `COC(=O)C1C(=O)O[C@@H](c2ccc(OC)cc2OC)C1C(=O)OC` (stereo partly drawn), the TGI in [1], in assay [2], in assay [3], in assay [4], in assay [5] and in assay [6] was above 100 µM in each case. For the same compound, the TGI in assay [7], in assay [8] and in [9] was above 100 µM each time.
Consider `O=C(CC(=O)C(F)(F)F)c1csc2ccccc12`, for which the TGI was 72.3 µM in assay [1]; above 100 µM in assay [2]; above 100 µM in assay [3]; above 100 µM in assay [4]; above 100 µM in [5]; above 100 µM in assay [6]. Moreover, the TGI was above 100 µM in assay [7] and 63.6 µM in assay [9].
As to `COc1ccccc1NC(=O)C1=C(C)NC(C)=C(C(=O)Nc2ccccc2OC)C1c1ccccc1OC`, the TGI in assay [1], in [2], in [3], in assay [4], in assay [5] and in [6] was above 100 µM throughout. In addition, the TGI in assay [7], in [8] and in assay [9] was above 100 µM throughout.
For the compound `CC(=O)Nc1ccc(/C=C/C(=O)c2sc(C(N)=S)nc2C)cc1`, the TGI in [1], in assay [3], in [4], in [5], in [6] and in assay [7] was above 100 µM in each case. Moreover, the TGI in assay [8] and in assay [9] was above 100 µM throughout.
Regarding `CCOC(=O)C1=C(C)N(NC(=O)c2ccccc2)C2(O)CCCC12C(=O)OCC` (stereo not drawn), the TGI in assay [1], in assay [2], in [3], in assay [4], in assay [6] and in [7] was above 100 µM in each case. For the same compound, the TGI in assay [8] and in assay [9] was above 100 µM throughout.
Turning to `Nc1nc(N)c(-c2ccc(Cl)cc2)c(CCC(=O)Nc2cccc(C(F)(F)F)c2)n1`, the TGI in assay [1], in assay [2], in assay [3], in [4], in assay [5] and in assay [6] was above 100 µM each time. For the same compound, the TGI in assay [7], in [8] and in assay [9] was above 100 µM in each case.
As for `CC1C2=CC=C(O2)C(C)(C)C2=CC=C(O2)C(C)(C)C2=CC=C(O2)C(C)(C)C2=CC=C1O2`, the TGI in assay [1], in assay [2], in assay [3], in assay [5], in assay [6] and in assay [7] was above 100 µM in each case. Also, the TGI in [8] and in assay [9] was above 100 µM each time.
With `Nc1ccn([C@@H]2C=C(CO)[C@@H](O)[C@H]2O)c(=O)n1`, the GI50 in assay [1] was 0.0171 µM; in [3], 2.97 µM and 1.12 µM; in assay [5], 0.114 µM. Moreover, the TGI in assay [3] is 470 µM; in [4], 406 µM and 379 µM; in assay [6] it was 500 µM and > 625 µM; in assay [7], 2.27 µM and 9.48 µM and 8.82 µM; in assay [8], 4.52 µM and 4.16 µM and 22.2 µM.
For `Cc1c(Cl)ccc2c1NC(=O)C2(O)C1Cc2ccccc2C1=O` (stereo not drawn), the TGI in assay [1], in assay [2], in assay [3], in assay [4], in [5] and in assay [6] was above 100 µM in each case. In addition, the TGI in assay [7], in assay [8] and in assay [9] was above 100 µM in each case.
